{
  "source": "paper PMC3247180",
  "about": "“Polyamidoamine (PAMAM) dendrimer conjugate specifically activates the A3 adenosine receptor to improve post-ischemic/reperfusion function in isolated mouse hearts” (BMC Pharmacology, 2011)",
  "key": {"[1]": {"molecular_target": "T1, mA3AR (Mus musculus, UniProt Q61618)", "T1 construct": "expressed in transfected cells; host or cells: HEK293", "T1 sequence (Q61618 1-319)": "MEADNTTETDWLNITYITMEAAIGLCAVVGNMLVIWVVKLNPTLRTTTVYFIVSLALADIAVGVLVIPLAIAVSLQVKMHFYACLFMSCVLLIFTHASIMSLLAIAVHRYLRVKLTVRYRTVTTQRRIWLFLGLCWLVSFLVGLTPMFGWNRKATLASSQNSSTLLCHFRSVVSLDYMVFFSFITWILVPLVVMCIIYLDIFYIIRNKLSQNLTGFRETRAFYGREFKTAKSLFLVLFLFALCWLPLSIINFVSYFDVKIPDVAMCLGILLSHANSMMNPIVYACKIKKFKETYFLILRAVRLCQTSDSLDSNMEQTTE", "experiment": "Radioligand ([125I]I-AB-MECA) competition binding, mA3AR", "method": "(§1) The competition assays were performed as previously published. Briefly, to prepare the membranes, HEK293 cells stably expressing recombinant mARs were harvested and homogenized in 10 mM Na^+-HEPES buffer (pH 7.4) with 10 mM EDTA and 0.1 mM benzamidine. The cell lysates were centrifuged (35,000 × g for 25 min; 4°C), and the pellets were resuspended in 10 mM Na^+-HEPES buffer (pH 7.4) with 1 mM EDTA and 0.1 mM benzamidine. The suspensions were homogenized and centrifuged again (35,000 × g for 25 min; 4°C). The resultant pellets were re-suspended in buffer containing 10% sucrose and stored at -80°C until use. For the radioligand binding assays, 50 μg cell membranes (100 μL) were incubated in 10 mM Na^+-HEPES buffer (pH 7.4) with 5 mM MgCl2, 5 U/mL ADA, and [^125I]I-AB-MECA as radioligand. The competing ligands of interest were added at various concentration ranges. The IC50 values were calculated using nonlinear regression analysis by fitting the data to the following equation: binding=nonspecific binding+total binding-nonspecific binding∕1+10^x-logIC50 Inhibition constant (Ki) values were calculated using the Cheng-Prusoff equation [36]. The concentration of MRS5246 reflected the concentration of the dendrimeric complex, not the individual ligand moieties. Therefore, all binding Ki values of this dendrimer are to be considered as Kiapp values."}, "[2]": {"molecular_target": "T2, mA1AR (Mus musculus, UniProt Q60612)", "T2 construct": "expressed in transfected cells; host or cells: HEK293", "T2 sequence (Q60612 1-326)": "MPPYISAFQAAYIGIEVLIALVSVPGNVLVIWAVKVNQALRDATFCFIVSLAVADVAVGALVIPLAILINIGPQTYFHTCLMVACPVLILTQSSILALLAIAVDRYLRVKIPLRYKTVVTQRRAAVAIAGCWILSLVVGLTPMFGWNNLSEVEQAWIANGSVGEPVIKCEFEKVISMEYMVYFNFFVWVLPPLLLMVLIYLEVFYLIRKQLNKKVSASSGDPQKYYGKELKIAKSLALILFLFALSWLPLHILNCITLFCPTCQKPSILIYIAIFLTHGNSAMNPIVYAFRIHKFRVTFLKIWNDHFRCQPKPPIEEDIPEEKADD", "experiment": "Radioligand ([125I]I-AB-MECA) competition binding, mA1AR", "conditions": "recombinant mAR on HEK293 cell membranes, Kiapp for the dendrimer conjugate, read-out: mA1AR, Ki or Kiapp", "method": "as §1"}, "[3]": {"molecular_target": "T1, mA3AR", "experiment": "cAMP functional assay (inhibition of forskolin-stimulated cAMP production), mA3AR in HEK293 cells", "format": "cell-based", "method": "(§2) The assays of cAMP (3',5'-cyclic adenosine monophosphate) were performed utilizing a modified protocol published by Nordstedt and colleagues, whereby cAMP content was determined by displacement of [^3H]cAMP binding to regulatory subunits of protein kinase A in bovine adrenal extracts. HEK293 cells heterologously expressing the mA3AR were prepared by plating 2.5 × 10^5 cells per well in 24-well plates and cultured overnight in complete media (DMEM with 10% fetal bovine serum/PenStrep/0.4 mg/mL G418) at 37°C. The cells were washed with DMEM/25 mM HEPES (pH 7.4) followed by incubation in DMEM/25 mM HEPES containing 20 μM Ro 20-1274 (phosphodiesterase inhibitor), 1 U/mL ADA and a combination of two selective A2BAR antagonists (300 nM CVT-6883 and 300 nM PSB603) at 37°C for 15 min. Forskolin (20 μM) to induce cAMP production and the test compounds of interest were then simultaneously added. A concentration range of ligands or dendrimer conjugates was tested in triplicate to inhibit cAMP production via activation of A1 or A3 ARs. After incubation at 37°C for 15 min, the media was aspirated, and the cells were lysed with 200 μL ice cold 0.1 M HCl on a shaker at 4°C for 30 min. The lysates were collected and cAMP levels in the acid extract were determined by competitive binding assays as follows. Each lysate sample and cAMP standard were diluted in 0.1 M HCl and subsequently transferred to polypropylene tubes (100 μL). [^3H]cAMP (12,000 cpm/100 μL water/tube) and protein extract from bovine adrenal tissue were then added (240 μg adrenal protein/tube at a concentration of 0.6 μg/μL, in the binding protein buffer: 100 mM Tris-HCl, 250 mM NaCl, 10 mM EDTA, 0.1% 2-mercaptoethanol, pH 8.0), with the extract isolated from bovine adrenal glands as described by Nordstedt, et al. to provide the cAMP binding substrate. The samples were incubated at 4°C for 2.5 hours and harvested through GF/C glass microfiber filters using a cell harvester (Brandel, Gaithersburg, MD) and counted in scintillation cocktail. […]"}, "[4]": {"molecular_target": "T2, mA1AR", "experiment": "cAMP functional assay (inhibition of forskolin-stimulated cAMP production), mA1AR in HEK293 cells", "format": "cell-based", "method": "as §2, with “After incubation at 37°C for 15 min, the media was aspirated, and the cells were lysed with 200 μL ice cold 0.1 M HCl on a shaker at 4°C for 30 min.” left out, “Each lysate sample and cAMP standard were diluted in 0.1 M HCl and subsequently transferred to polypropylene tubes (100 μL). [^3H]cAMP (12,000 cpm/100 μL water/tube) and protein extract from bovine adrenal tissue were then added (240 μg adrenal protein/tube at a concentration of 0.6 μg/μL, in the binding protein buffer: 100 mM Tris-HCl, 250 mM NaCl, 10 mM EDTA, 0.1% 2-mercaptoethanol, pH 8.0), with the extract isolated from bovine adrenal glands as described by Nordstedt, et al. to provide the cAMP binding substrate.” left out"}, "[5]": {"tested_on": "isolated mouse hearts", "experiment": "Langendorff-perfused isolated mouse heart model of I/R (wild-type)", "method": "MRS5246 and MRS5233 were tested for effects on functional improvement in isolated mouse hearts subjected to global ischemia and reperfusion. The agonists were infused into the coronary circulation of the hearts for 10 min immediately before 20 min of global ischemia. The functional recovery parameters (left ventricular developed pressure [LVDP], rate of contraction [dP/dtmax], rate of relaxation [dP/dtmin], and coronary flow [CF; mL/min/g]) of the hearts were assessed throughout reperfusion and after 45 min of reperfusion and compared to those of control hearts.\nIsolated mouse heart experiments were performed as described previously. In brief, hearts were isolated from C57Bl/6J male mice and cannulated via the aorta and perfused in a retrograde fashion by Krebs-Henseleit buffer. Pressure measurements were obtained via a fluid-filled balloon inserted into the left ventricle via the mitral valve and connected to a pressure transducer. The hearts were immersed in warmed perfusion buffer to maintain the hearts at 37°C, and the balloons were inflated to achieve constant end-diastolic pressures of 5 to 10 mm Hg.\nThe hearts were perfused for 20 min to achieve stabilization and then paced at 420 beats/min for baseline functional measurements. Global ischemia was achieved by closing an in-line stopcock to stop perfusion for 20 min followed by 45 min of reperfusion by re-opening the stopcock. To examine the effect of the ligands and dendrimer conjugates on functional recovery, the hearts were perfused with buffer containing the indicated concentrations of compounds for 10 min immediately before ischemia.\nAll data are reported as means ± S.E.M. Functional recovery data in the isolated heart studies were analyzed by two-way repeated measures ANOVA. […] Left ventricular functional recoveries at 45 min of reperfusion were compared using one-way analysis of variance followed by Student's t test with the Bonferroni correction or an unpaired Student's t test, as appropriate. P < 0.05 was statistically significant."}, "[6]": {"molecular_target": "hA3AR", "conditions": "ref [13],[14]; cited from earlier work"}, "[7]": {"molecular_target": "hA2AAR", "set-up": "method as in PMID 19499950, PMID 20036562", "conditions": "ref [13],[14]; cited from earlier work"}, "[8]": {"tested_on": "hA1AR", "set-up": "method as in PMID 19499950, PMID 20036562", "conditions": "at 10 μM; ref [13],[14]; cited from earlier work"}},
  "note": "Entries after “also recorded” stand apart in the source; their conditions may differ.",
  "data": [
    {"compound": "CNC(=O)[C@@]12C[C@@H]1[C@@H](n1cnc3c(NCc4cccc(Cl)c4)nc(C#CCCCCc4cn(CCNC(C)=O)nn4)nc31)[C@H](O)[C@@H]2O", "note": "[MRS5233]", "values": [
      {"measurement": "Ki", "setting": "[1]; [125I]I-AB-MECA, recombinant mAR on HEK293 cell membranes, Kiapp for the dendrimer conjugate, read-out: mA3AR, Ki or Kiapp", "value": "3.94 ± 0.31", "unit": "nM"},
      {"measurement": "fold greater affinity at mA3AR than at hA3AR", "setting": "[1]; mouse Ki vs reported human Ki", "value": 5.7, "unit": "fold"},
      {"measurement": "Selectivity (A1 /A3)", "setting": "[1]; mouse receptors, ratio of binding Ki", "value": "169-fold"},
      {"measurement": "Ki", "setting": "[2]", "value": "665 ± 70", "unit": "nM"},
      {"measurement": "agonist efficacy in cAMP assay", "setting": "[3]; HEK293 cells overexpressing recombinant mARs", "value": "full agonists"},
      {"measurement": "IC50", "setting": "[3]; HEK293 cells, forskolin-stimulated", "value": 4, "unit": "nM"},
      {"measurement": "EC50", "setting": "[3]; HEK293 cells, forskolin-stimulated, as printed in Figure 3, read-out: EC50, cAMP functional assay, mouse A3AR", "value": "4 ± 0.3", "unit": "nM"},
      {"measurement": "activity at the mA1AR in cAMP assay", "setting": "[4]; at 100 μM", "value": "inactive"},
      {"measurement": "inhibition of cAMP production at the A1AR", "setting": "[4]; up to 0.1 mM", "value": "lacked inhibition"},
      {"measurement": "recovery of LVDP throughout reperfusion vs control", "setting": "[5]; 1 nM", "value": "did not; also recorded: trend in improving LVDP over control"},
      {"measurement": "recovery of rates of relaxation and contraction at 45 min reperfusion vs control", "setting": "[5]; 1 nM", "value": "significantly better"},
      {"measurement": "recovery of LVDP throughout reperfusion vs control", "setting": "[5]; 10 nM", "value": "significant improvement"},
      {"measurement": "recovery of rates of relaxation and contraction at 45 min reperfusion vs control", "setting": "[5]; 10 nM", "value": "significantly better"},
      {"measurement": "functional recovery after 20 min ischemia/45 min reperfusion compared to control", "setting": "[5]; 1 and 10 nM (MRS5246 in Figure 6 also 0.1 nM), infused 10 min before ischemia", "value": "improved functional recovery compared to control in a concentration-dependent manner; also recorded: effective at increasing functional recovery; also recorded: significant protection starting at one nanomolar"},
      {"measurement": "Ki", "setting": "[6]", "value": "22.3 ± 1.6", "unit": "nM"},
      {"measurement": "Ki", "setting": "[7]", "value": "2440 ± 320", "unit": "nM"},
      {"measurement": "inhibition of radioligand binding at hA1AR", "setting": "[8]", "value": "12 ± 4", "unit": "%"}
    ]}
  ]
}
